Reference: ChEMBL document CHEMBL5357084, “Structure-Guided Discovery of Diverse Cytotoxic Dimeric Xanthones/Chromanones from Penicillium chrysogenum C-7-2-1 and Their Interconversion Properties” (J Nat Prod, 2024)
pIC50: −log10 of the molar value. Activity calls are given as the source filed them. No cut-off for these calls is given here.

Columns and labels:
[1] = test system: NCI-H23; experiment: Cytotoxicity against human NCI-H23 cells […] at 50 uM measured after 48 hrs by MTT assay relative to control; type: functional
[2] = test system: Caco-2; experiment: Cytotoxicity against human Caco-2 cells assessed as inhibition of cell growth at 50 uM measured after 48 hrs by MTT assay relative to control; type: functional; parameters: scale not given: the % may be the effect or the level left
[3] = test system: A-375; experiment: Cytotoxicity against human A-375 cells […] at 50 uM measured after 48 hrs by MTT assay relative to control; type: functional
[4] = test system: SW-620; experiment: Cytotoxicity against human SW620 cells assessed as inhibition of cell growth at 50 uM measured after 48 hrs by MTT assay relative to control; type: functional
[5] = test system: NCI-H1299; experiment: Cytotoxicity against human NCI-H1299 cells assessed as inhibition of cell growth at 50 uM measured after 48 hrs by MTT assay relative to control; type: functional; parameters: scale not given: the % may be the effect or the level left
[6] = test system: BEAS-2B; experiment: Cytotoxicity against human BEAS-2B cells assessed as inhibition of cell growth at 50 uM measured after 48 hrs by MTT assay relative to control; type: functional
[7] = test system: Caco-2; experiment: Cytotoxicity against human Caco-2 cells assessed as inhibition of cell growth measured after 48 hrs by MTT assay; type: functional, cell-based; settings: Caco-2, 48 h
[8] = test system: NCI-H1299; experiment: Cytotoxicity against human NCI-H1299 cells assessed as inhibition of cell growth measured after 48 hrs by MTT assay; type: functional, cell-based; settings: NCI-H1299, 48 h
[9] = test system: A-375; experiment: Cytotoxicity against human A-375 cells assessed as inhibition of cell growth measured after 48 hrs by MTT assay; type: functional, cell-based; settings: A-375, 48 h
[10] = test system: BEAS-2B; experiment: Cytotoxicity against human BEAS-2B cells assessed as inhibition of cell growth measured after 48 hrs by MTT assay; type: functional, cell-based; settings: for IC50: beas-2b
[11] = test system: NCI-H23; experiment: Cytotoxicity against human NCI-H23 cells assessed as inhibition of cell growth measured after 48 hrs by MTT assay; type: functional, cell-based; settings: NCI-H23, 48 h
[12] = test system: SW-620; experiment: Cytotoxicity against human SW620 cells assessed as inhibition of cell growth measured after 48 hrs by MTT assay; type: functional, cell-based; settings: for pIC50: Homo sapiens, SW-620, 48 h, read-out: IC50; for IC50: sw-620
[13] = test system: NCI-H23; experiment: Induction of apoptosis in human NCI-H23 cells assessed as apoptosis rate at 5 uM incubated for 24 hrs by annexin V-FITC and propidium iodide staining based flow cytometry analysis (reference value: 6.88+/-2.63%); type: functional
[14] = test system: NCI-H23; experiment: Induction of cell cycle arrest in human NCI-H23 cells assessed as accumulation of cells at G2/M phase at 5 uM incubated for 24 hrs by PI staining based flow cytometry analysis (reference value: 27.60+/-0.83%); type: functional
[15] = test system: NCI-H23; experiment: Induction of cell cycle arrest in human NCI-H23 cells assessed as accumulation of cells at S phase at 5 uM incubated for 24 hrs by PI staining based flow cytometry analysis (reference value: 15.45+/-1.79%); type: functional
[16] = test system: NCI-H23; experiment: Induction of cell cycle arrest in human NCI-H23 cells assessed as accumulation of cells at G1 phase at 5 uM incubated for 24 hrs by PI staining based flow cytometry analysis (reference value: 56.95+/-1.02%); type: functional
[17] = test system: NCI-H23; experiment: Induction of cell cycle arrest in human NCI-H23 cells assessed as accumulation of cells at SubG1 phase at 5 to 10 uM incubated for 24 hrs by PI staining based flow cytometry analysis (reference value: 0%); type: functional; settings: dose 5-10 µM
[18] = test system: NCI-H23; experiment: Induction of apoptosis in human NCI-H23 cells assessed as apoptosis rate at 10 uM incubated for 24 hrs by annexin V-FITC and propidium iodide staining based flow cytometry analysis (reference value: 6.88+/-2.63%); type: functional
[19] = test system: NCI-H23; experiment: Induction of cell cycle arrest in human NCI-H23 cells assessed as accumulation of cells at S phase at 10 uM incubated for 24 hrs by PI staining based flow cytometry analysis (reference value: 15.45+/-1.79%); type: functional
[20] = test system: NCI-H23; experiment: Induction of cell cycle arrest in human NCI-H23 cells assessed as accumulation of cells at G2/M phase at 10 uM incubated for 24 hrs by PI staining based flow cytometry analysis (reference value: 27.60+/-0.83%); type: functional
[21] = test system: NCI-H23; experiment: Induction of cell cycle arrest in human NCI-H23 cells assessed as accumulation of cells at G1 phase at 10 uM incubated for 24 hrs by PI staining based flow cytometry analysis (reference value: 56.95+/-1.02%); type: functional
[22] = test system: NCI-H23; experiment: Induction of apoptosis in human NCI-H23 cells assessed as apoptosis rate incubated for 24 hrs by annexin V-FITC and propidium iodide staining based flow cytometry analysis; type: functional, cell-based; settings: dose 5-10 µM

Row | Structure (SMILES) | Activity [1] | Activity [2] | Activity [3] | Cell growth relative to control [4] | Activity [5] | Cell growth relative to control [6] | pIC50 [7] | pIC50 [8] | pIC50 [9] | IC50 [10] | pIC50 [11] | also measured
1 | COC(=O)[C@@]12Oc3c(c(O)cc(C)c3-c3ccc4c(c3O)C(=O)C3=C(O)C[C@H](C)[C@H](O)[C@]3(C(=O)OC)O4)C(=O)C1=C(O)CC[C@H]2O | 82.6% | 85% | 79.9% | 106.3% | 81.1% | 99.5% |  |  |  |  |  | 
2 | COC(=O)[C@@]12Oc3cc(C)c(-c4ccc5c(c4O)C(=O)C4=C(O)C[C@H](C)[C@H](O)[C@]4(C(=O)OC)O5)c(O)c3C(=O)C1=C(O)CC[C@H]2O | 5.2% | 68.9% | 83.9% | 98.9% | 76.4% | 155.8% | < 4.30 | < 4.30 | < 4.30 | Not Active | 5.16 | pIC50 [12]: < 4.30
3 | COC(=O)[C@@]12Oc3c(-c4ccc(O)c5c4O[C@]4(C(=O)O)C(=C(O)C[C@@H](C)[C@@H]4O)C5=O)ccc(O)c3C(=O)C1=C(O)C[C@H](C)[C@@H]2O | 6.7% | 73.2% | 84.1% | 99.9% | 38.2% | 155.5% | < 4.30 | 4.51 | < 4.30 | Not Active | 5.41 | IC50 [12]: Not Active
4 | COC(=O)[C@@]12Oc3ccc(-c4ccc(O)c5c4O[C@]4(C(=O)OC)C(=C(O)C[C@H](C)[C@@H]4O)C5=O)c(O)c3C(=O)C1=C(O)C[C@H](C)[C@H]2O | 7.2% | 70.2% | 75% | 98.6% | 64.9% | 151.6% | < 4.30 | < 4.30 | < 4.30 | Not Active | 5.19 | Activity [13]: 45.71%; Activity [14]: 38.43%; Activity [15]: 15%; Activity [16]: 46.56%; Activity [17]: 0%; Activity [18]: 60.11%; Activity [19]: 8.85%; Activity [20]: 52.48%; IC50 [12]: Not Active; Activity [21]: 38.68%; Activity [22]: Dose-Dependent Effect
5 | COC(=O)[C@@]1([C@H](O)[C@@H](C)CC(=O)O)CC(=O)c2c(ccc(-c3ccc4c(c3O)C(=O)C[C@@](C(=O)OC)([C@H](O)[C@@H](C)CC(=O)O)O4)c2O)O1 | 83.6% | 94.4% | 103.2% | 98.7% | 64.9% | 105.5% |  |  |  |  |  | 
6 | COC(=O)[C@]1([C@H]2OC(=O)C[C@@H]2C)CC(=O)c2c(ccc(-c3ccc4c(c3O)C(=O)C[C@@](C(=O)OC)([C@H](O)[C@@H](C)CC(=O)O)O4)c2O)O1 | 90.1% | 46.8% | 63% | 70.5% | 76.4% | 158.7% | 4.59 | < 4.30 | < 4.30 | Not Active | < 4.30 | pIC50 [12]: < 4.30
7 | COC(=O)[C@@]12Oc3c(-c4ccc5c(c4O)C(=O)C[C@](C(=O)OC)([C@@H]4OC(=O)C[C@@H]4C)O5)ccc(O)c3C(=O)C1=C(O)C[C@H](C)[C@H]2O | 102.6% | 102.4% | 106% | 117% | 66.2% | 96.8% |  |  |  |  |  | 
8 | COC(=O)[C@@]12Oc3c(-c4ccc5c(c4O)C(=O)C[C@](C(=O)OC)([C@H]4OC(=O)C[C@@H]4C)O5)ccc(O)c3C(=O)C1=C(O)C[C@H](C)[C@H]2O | 82.8% | 99.2% | 86.1% | 111% | 64.2% | 179.2% |  |  |  |  |  | 
9 | COC(=O)[C@@]12Oc3ccc(-c4ccc5c(c4O)C(=O)C[C@](C(=O)OC)([C@H]4OC(=O)C[C@@H]4C)O5)c(O)c3C(=O)C1=C(O)C[C@H](C)[C@H]2O | 87.6% | 82.5% | 74.7% | 90.4% | 78.4% | 109.9% |  |  |  |  |  | 
10 | CNC(=O)c1cc(Oc2ccc(NC(=O)Nc3ccc(Cl)c(C(F)(F)F)c3)cc2)ccn1 [SORAFENIB] |  |  |  |  |  |  | 5.89 | 5.47 | 5.74 |  | 5.62 | pIC50 ([10]; Homo sapiens, BEAS-2B, 48 h, read-out: IC50): 4.50; pIC50 [12]: 5.64
11 | COC(=O)C[C@H](C)[C@@H](O)[C@]1(C(=O)OC)CC(=O)c2c(ccc(-c3ccc4c(c3O)C(=O)C[C@](C(=O)OC)([C@@]3(O)OC(=O)C[C@@H]3C)O4)c2O)O1 | 73.6% | 92.1% | 94.4% | 115.5% | 87.9% | 171.6% |  |  |  |  |  | 
12 | COC(=O)[C@@]12Oc3ccc(-c4ccc(O)c5c4O[C@@](C(=O)OC)([C@H]4OC(=O)C[C@@H]4C)CC5=O)c(O)c3C(=O)C1=C(O)C[C@H](C)[C@H]2O | 56% | 82.4% | 76.8% | 94.9% | 65.9% |  |  |  |  |  |  | Activity [6]: inactive
13 | COC(=O)[C@@]1([C@H](O)[C@@H](C)CC(=O)O)CC(=O)c2c(ccc(-c3ccc(O)c4c3O[C@](C(=O)OC)([C@H](O)[C@@H](C)CC(=O)O)CC4=O)c2O)O1 | 73.1% | 94.4% | 91.7% | 99.3% | 78.6% | 110% |  |  |  |  |  | 
14 | COC(=O)[C@]12Oc3ccc(-c4ccc5c(c4O)C(=O)C4=C(O)C[C@@H](C)[C@H](O)[C@@]4(C(=O)OC)O5)c(O)c3C(=O)C1=C(O)C[C@@H](C)[C@@H]2O [SECALONIC ACID A] | 8.7% | 54.5% | 75.6% | 80.1% | 73.6% | 107.3% | < 4.30 | < 4.30 | < 4.30 | Not Active | 5.59 | pIC50 [12]: < 4.30
15 | COC(=O)C[C@H](C)[C@@H](O)[C@]1(C(=O)OC)CC(=O)c2c(O)ccc(-c3ccc4c(c3O)C(=O)C[C@](C(=O)OC)([C@@]3(O)OC(=O)C[C@@H]3C)O4)c2O1 | 86.7% | 55.9% | 102.5% | 72.9% | 70.4% | 171% |  |  |  |  |  | 
